Assay results taken from ChEMBL document CHEMBL4145521, “Regioselective synthesis of 3,4-diaryl-5-unsubstituted isoxazoles, analogues of natural cytostatic combretastatin A4” (Eur J Med Chem, 2018).

Legend:
Type in all cases: functional
SNB-75 [1] = test: Cytotoxicity against human SNB75 cells assessed as cell growth at 100 uM incubated for 48 hrs by sulforhodamine B assay relative to control; settings: SNB-75, 48 h, read-out: Activity
TK-10 [2] = test: Cytotoxicity against human TK10 cells assessed as cell growth at 0.1 uM incubated for 48 hrs by sulforhodamine B assay relative to control; settings: TK-10, 48 h, read-out: Activity
CCRF-CEM = test: Cytotoxicity against human CCRF-CEM cells assessed as cell growth at 10 uM incubated for 48 hrs by sulforhodamine B assay relative to control; settings: read-out: Activity
NCI-H522 = test: Cytotoxicity against human NCI-H522 cells assessed as cell growth at 0.1 uM incubated for 48 hrs by sulforhodamine B assay relative to control; settings: NCI-H522, 48 h, read-out: Activity
SF-295 = test: Cytotoxicity against human SF295 cells assessed as cell growth at 100 uM incubated for 48 hrs by sulforhodamine B assay relative to control; settings: SF-295, 48 h, read-out: Activity
SF-268 = test: Cytotoxicity against human SF268 cells assessed as cell growth at 100 uM incubated for 48 hrs by sulforhodamine B assay relative to control; settings: SF-268, 48 h, read-out: Activity
786-0 = test: Cytotoxicity against human 786-0 cells assessed as cell growth at 10 uM incubated for 48 hrs by sulforhodamine B assay relative to control; settings: 786-0, 48 h, read-out: Activity
SNB-75 [3] = test: Cytotoxicity against human SNB75 cells assessed as cell growth at 0.1 uM incubated for 48 hrs by sulforhodamine B assay relative to control; settings: SNB-75, 48 h, read-out: Activity
Malme-3M = test: Cytotoxicity against human MALME-3M cells incubated for 48 hrs by sulforhodamine B assay
OVCAR-4 = test: Cytotoxicity against human OVCAR4 cells assessed as cell growth at 0.01 uM incubated for 48 hrs by sulforhodamine B assay relative to control; settings: OVCAR-4, 48 h, read-out: Activity
SNB-75 [4] = test: Cytotoxicity against human SNB75 cells assessed as cell growth at 1 uM incubated for 48 hrs by sulforhodamine B assay relative to control; settings: SNB-75, 48 h, read-out: Activity
A549 [5] = test: Cytotoxicity against human A549/ATCC cells incubated for 48 hrs by sulforhodamine B assay; settings: A549, 48 h
HOP-92 [6] = test: Cytotoxicity against human HOP92 cells assessed as cell growth at 100 uM incubated for 48 hrs by sulforhodamine B assay relative to control; settings: HOP-92, 48 h, read-out: Activity
NCI-H226 = test: Cytotoxicity against human NCI-H226 cells assessed as cell growth at 0.1 uM incubated for 48 hrs by sulforhodamine B assay relative to control; settings: NCI-H226, 48 h, read-out: Activity
A549 [7] = test: Cytotoxicity against human A549/ATCC cells assessed as cell growth at 0.01 uM incubated for 48 hrs by sulforhodamine B assay relative to control; settings: A549, 48 h, read-out: Activity
SK-MEL-5 = test: Cytotoxicity against human SK-MEL-5 cells assessed as cell growth at 100 uM incubated for 48 hrs by sulforhodamine B assay relative to control; settings: SK-MEL-5, 48 h, read-out: Activity
SW-620 = test: Cytotoxicity against human SW620 cells assessed as cell growth at 10 uM incubated for 48 hrs by sulforhodamine B assay relative to control; settings: SW-620, 48 h, read-out: Activity
DU-145 = test: Cytotoxicity against human DU145 cells incubated for 48 hrs by sulforhodamine B assay; settings: DU-145, 48 h
TK-10 [8] = test: Cytotoxicity against human TK10 cells assessed as cell growth at 10 uM incubated for 48 hrs by sulforhodamine B assay relative to control; settings: TK-10, 48 h, read-out: Activity
Hs-578T = test: Cytotoxicity against human Hs 578T cells assessed as cell growth at 100 uM incubated for 48 hrs by sulforhodamine B assay relative to control; settings: read-out: Activity
SK-OV-3 = test: Cytotoxicity against human SKOV3 cells assessed as cell growth at 0.01 uM incubated for 48 hrs by sulforhodamine B assay relative to control; settings: SK-OV-3, 48 h, read-out: Activity
IGROV-1 = test: Cytotoxicity against human IGROV1 cells assessed as cell growth at 10 uM incubated for 48 hrs by sulforhodamine B assay relative to control; settings: IGROV-1, 48 h, read-out: Activity
UO-31 = test: Cytotoxicity against human UO31 cells assessed as cell growth at 1 uM incubated for 48 hrs by sulforhodamine B assay relative to control; settings: UO-31, 48 h, read-out: Activity
HOP-62 = test: Cytotoxicity against human HOP62 cells assessed as cell growth at 1 uM incubated for 48 hrs by sulforhodamine B assay relative to control; settings: HOP-62, 48 h, read-out: Activity
HOP-92 [9] = test: Cytotoxicity against human HOP92 cells assessed as cell growth at 10 uM incubated for 48 hrs by sulforhodamine B assay relative to control; settings: HOP-92, 48 h, read-out: Activity
NCI-H23 = test: Cytotoxicity against human NCI-H23 cells assessed as cell growth at 1 uM incubated for 48 hrs by sulforhodamine B assay relative to control; settings: NCI-H23, 48 h, read-out: Activity
SR = test: Cytotoxicity against human SR cells assessed as cell growth at 10 uM incubated for 48 hrs by sulforhodamine B assay relative to control; settings: read-out: Activity
NCI-H460 = test: Cytotoxicity against human NCI-H460 cells assessed as cell growth at 0.01 uM incubated for 48 hrs by sulforhodamine B assay relative to control; settings: NCI-H460, 48 h, read-out: Activity
COLO 205 = test: Cytotoxicity against human COLO205 cells assessed as cell growth at 1 uM incubated for 48 hrs by sulforhodamine B assay relative to control; settings: COLO 205, 48 h, read-out: Activity
HOP-92 [10] = test: Cytotoxicity against human HOP92 cells assessed as cell growth at 0.1 uM incubated for 48 hrs by sulforhodamine B assay relative to control; settings: HOP-92, 48 h, read-out: Activity
M14 = test: Cytotoxicity against human M14 cells incubated for 48 hrs by sulforhodamine B assay; settings: M14, 48 h
OVCAR-8 = test: Cytotoxicity against human OVCAR8 cells assessed as cell growth at 1 uM incubated for 48 hrs by sulforhodamine B assay relative to control; settings: OVCAR-8, 48 h, read-out: Activity
[11] = read-out: LC50 (the source's name)
[12] = read-out: pLC50 (the source's name) (converted)

## COc1ccc(-c2nocc2-c2cc(OC)c(OC)c(OC)c2)cc1
SNB-75 [1]
  growth at 100 µM: 9%
TK-10 [2]
  growth at 0.1 µM: 46%
CCRF-CEM
  growth at 10 µM: 24%
NCI-H522
  growth at 0.1 µM: -12%
SF-295
  growth at 100 µM: -35%
SF-268
  growth at 100 µM: 1%
786-0
  growth at 10 µM: 24%
SNB-75 [3]
  growth at 0.1 µM: 47%
Malme-3M; read-out: LC50
  LC50 (concentration killing 50% of cells): > 100 µM
Malme-3M; read-out: TGI
  TGI: 45.5 µM
Malme-3M; read-out: pLC50 (converted)
  LC50 (concentration killing 50% of cells): > 100 µM
Malme-3M; read-out: pTGI (converted)
  TGI: 45.7 µM
OVCAR-4
  growth at 0.01 µM: 86%
SNB-75 [4]
  growth at 1 µM: 4%
A549 [5]; read-out: GI50
  GI50: 0.0869 µM
A549 [5]; read-out: LC50
  LC50: > 100 µM
A549 [5]; read-out: TGI
  TGI: > 100 µM
A549 [5]; read-out: pGI50 (converted)
  GI50: 0.0871 µM
A549 [5]; read-out: pLC50 (converted)
  LC50: > 100 µM
A549 [5]; read-out: pTGI
  TGI: > 100 µM
HOP-92 [6]
  growth at 100 µM: -21%
NCI-H226
  growth at 0.1 µM: 90%
A549 [7]
  growth at 0.01 µM: 100%
SK-MEL-5
  growth at 100 µM: -99%
SW-620
  growth at 10 µM: 19%
DU-145; read-out: GI50
  GI50: 0.244 µM
DU-145; [11]
  CC50: > 100 µM
DU-145; read-out: TGI
  TGI: > 100 µM
DU-145; read-out: pGI50 (converted)
  GI50: 0.245 µM
DU-145; [12]
  CC50: > 100 µM
DU-145; read-out: pTGI
  TGI: > 100 µM
TK-10 [8]
  growth at 10 µM: 18%
Hs-578T
  growth at 100 µM: 10%
SK-OV-3
  growth at 0.01 µM: 87%
IGROV-1
  growth at 10 µM: 25%
UO-31
  growth at 1 µM: 43%
HOP-62
  growth at 1 µM: 39%
HOP-92 [9]
  growth at 10 µM: 49%
NCI-H23
  growth at 1 µM: 29%
SR
  growth at 10 µM: 22%
NCI-H460
  growth at 0.01 µM: 105%
COLO 205
  growth at 1 µM: 11%
HOP-92 [10]
  growth at 0.1 µM: 72%
M14; read-out: GI50
  GI50: 0.0668 µM
M14; [11]
  CC50: > 100 µM
M14; read-out: TGI
  TGI: 53.9 µM
M14; read-out: pGI50 (converted)
  GI50: 0.0661 µM
M14; [12]
  CC50: > 100 µM
M14; read-out: pTGI (converted)
  TGI: 53.7 µM
OVCAR-8
  growth at 1 µM: 27%
